Experimental data published in patent US5969017A, “Methods of treating or preventing cardiac arrhythmia” (Merck & Co., Inc., priority 1997, dated 1999).

The compounds below were run on other cardiac K+ channels (assay: Block of the other cardiac K+ channels (IK1, IKr and IKs, summary)). Conditions: summary of Table 2.
Assay type: cell-based, guinea pig
Protocol: D. Measurement of IKs IKr and IK1 in Guinea Pig Ventricular Myocytes.
Guinea pig ventricular myocytes were isolated using a modification of the procedure described by Mitra et al., Am. J. Physiol. 249:H1056-60 (1985). Excised hearts were perfused through the aorta (retrograde fashion) at a rate of 10 ml/min with oxygenated, warmed (37° C.) solutions described below. The heart was initially perfused for 7 minutes with a Tyrode's solution containing, in mM: 132 NaCl, 4 KCl, 1.2 MgCl2, 10 HEPES, 5 glucose, pH=7.2. The heart was then perfused with the same nominally Ca^2+ -free solution containing 150 units/ml Type II collagenase (Worthington) and 0.5 units/ml Type XIV protease (Sigma) for 8 minutes. This perfusate was followed by a Tyrode's solution contianing 0.2 mM CaCl2 (without enzymes) for 5 minutes. The digested ventricles were cut into small pieces and gently shaken until cells were visibly dispersed. The cells were stored at room temperature until use, within 8 hours after isolation.
Microelectrode fabrication:
The suction microelectrode technique described by Giles, W. R. and Shibata, E. F., "Voltage clamp of bull-frog cardiac pacemaker cells: a quantitative analysis of potassium currents", J. Physiol. 368:265-292 (1985) was used to voltage clamp the cells. Microelectrodes were made by using a two stage puller from square bore (1.0 mm o.d.) borosilicate capillary tubing. Pipettes were filled with 0.5 M K gluconate, 25 mM KCl and 5 mM K2 ATP. The electrodes had resistances of 3 to 7 Mohm when filled with this solution. After establishing whole-cell recording mode, negative pressure was maintained on the pipette using a 1 ml gas-tight syringe attached via air tight tubing to the suction port of the microelectrode holder. This minimized dialysis of the cell with the pipette solution.
To record K^+ currents, the cells were bathed in a Ca^2+ -free Tyrode's solution containing […]. […] To record Ca^2+ currents, the cells were bathed in Tyrode's solution containing 1.8 mM Ca^2+ without nisoldipine. The cell chamber was superfused with solutions at a rate of 1-2 ml/minute, while maintaining the temperture at […]. A List EPC-7 clamp amplifier was used to voltage clamp the isolated cells. Series resistance was compensated 40-70%, and current was low-pass filtered at a cut-off frequency of 1 kHz. […] Data was analyzed as % block from control membrane currents.
Nisoldipine was prepared as a 4 mM stock solution in polyethylne glycol 200. […] At the final concentrations used, neither polyethylene glycol 200 nor dimethyl sulfoxide had any effect on any of the measured membrane currents.
Selectivity for block of cardiac K^+ channels, IK1, IKr, and IKs was determined as previously described in guinea pig ventricular myocytes (U.S. Pat. No. 5,428,031).

SMILES | blockade of the other cardiac K+ channels (in words)
COc1ccc(-n2nc(Sc3ccc(Cl)cc3)c(C)c(C#N)c2=O)cc1 [C, 6-(4-Chlorophenylthio)-2-(4-methoxyphenyl)-5-methyl-3-oxo-2,3-dihydropyridazine-4-carbonitrile] | minimal or absent
CC1CCC(C(C)C)C(P(=O)(c2ccccc2)c2ccccc2)C1 (stereo not shown) [A, (2-Isopropyl-5-methylcyclohexyl)diphenylphosphine oxide] | minimal or absent
Cc1cc(C)c(CP(=O)(c2ccccc2)c2ccccc2)c(-c2ccc(F)c(C)c2)c1 [B, 2-(Diphenylphosphinylmethyl)-4'-fluoro-3,5,3'-trimethyl-biphenyl] | minimal or absent
COc1ccc(-n2nc(Sc3ccc(C)cc3)c(C)c(C#N)c2=O)cc1 [D] | minimal or absent
